Values quoted from earlier work, collected in patent USRE48948E1, “Clonidine compounds in a biodegradable polymer” (priority 2008, dated 2022).
Where a name gives a salt, the structure may show the parent alone.

What was measured:
post-surgical knee pain = conditions: Intra-articular administration of 150 mcg
[1] = in vivo

SMILES: Clc1cccc(Cl)c1N=C1NCCN1 [clonidine HCL]
- relief of post-surgical knee pain (post-surgical knee pain): as effective as morphine

SMILES: Clc1cccc(Cl)c1N=C1NCCN1 [clonidine, 2,6-dichloro-N-2-imidazolidinyldenebenzenamine]
- plasma concentration above which antihypertensive effects become evident [1]: above 500 pg/mL
- systemic concentration associated with spinal analgesia [1]: approximately 2 ng/mL
